The source of these data is ChEMBL document CHEMBL3596112, “Sulfonium ions as inhibitors of the mycobacterial galactofuranosyltransferase GlfT2” (Medchemcomm, 2014).

SMILES strings stand for the structures. Activity calls are given as the source filed them. The calls are words filed in the database; no cut-off is given here.

The assay concerns the target T1, Galactofuranosyltransferase GlfT2 (Mycobacterium tuberculosis) (UniProt O53585).
T1 sequence (whole entry): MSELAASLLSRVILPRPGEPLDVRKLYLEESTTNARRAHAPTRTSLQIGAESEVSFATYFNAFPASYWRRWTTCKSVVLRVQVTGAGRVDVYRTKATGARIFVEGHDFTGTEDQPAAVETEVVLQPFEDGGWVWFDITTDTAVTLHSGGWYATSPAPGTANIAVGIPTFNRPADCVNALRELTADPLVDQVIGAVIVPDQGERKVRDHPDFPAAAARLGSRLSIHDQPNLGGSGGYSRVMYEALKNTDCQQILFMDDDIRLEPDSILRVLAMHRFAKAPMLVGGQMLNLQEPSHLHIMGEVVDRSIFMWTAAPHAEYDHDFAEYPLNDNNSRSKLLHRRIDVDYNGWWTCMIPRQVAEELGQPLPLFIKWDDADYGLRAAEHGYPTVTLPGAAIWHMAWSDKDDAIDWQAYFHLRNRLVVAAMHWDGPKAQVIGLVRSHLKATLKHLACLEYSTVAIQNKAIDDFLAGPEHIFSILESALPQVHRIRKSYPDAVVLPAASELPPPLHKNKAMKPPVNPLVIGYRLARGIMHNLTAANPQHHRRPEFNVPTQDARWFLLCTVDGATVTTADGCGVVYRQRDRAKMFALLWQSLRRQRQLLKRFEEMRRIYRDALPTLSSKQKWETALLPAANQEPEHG
Nature of the assay: Inhibition of Mycobacterium tuberculosis recombinant GlfT2 using beta-D-Galf-(1-5)-beta-D-Galf-(1-6)-beta-D-Galf-octyl as acceptor and UDP-Galf as donor substrate at 4 mM by coupled spectrophotometric assay.
For orientation: inhibition means the change of the read-out against control, counted positive when it falls. As for `CCC[S+]1C[C@H]([C@H](O)CO)[C@H](O)C1` (some centres undefined), the inhibition entry was “inactive”. Turning to `COCC[S+]1C[C@H]([C@H](O)CO)[C@H](O)C1` (some centres undefined), the inhibition entry was “inactive”. Regarding `CC(C)C[S+]1C[C@H]([C@H](O)CO)[C@H](O)C1` (some centres undefined), the inhibition entry is “inactive”. The entry for `COCCCCCCCC[S+]1C[C@H]([C@H](O)CO)[C@H](O)C1` (some centres undefined) is “inactive”. `OCCC[S+]1C[C@H]([C@H](O)CO)[C@H](O)C1` (some centres undefined): the inhibition result was “inactive”. On to `OC[C@@H](O)[C@H]1C[S+](Cc2ccccc2)C[C@H]1O` (some centres undefined), for which the inhibition result was “inactive”.

With `CCCCCCCC[S+]1C[C@H]([C@H](O)CO)[C@H](O)C1` (some centres undefined), the inhibition result is “inactive”.

`OC[C@@H](O)[C@H]1C[S+](CCc2ccccc2)C[C@H]1O` (some centres undefined): the inhibition result was “inactive”. Then `OC[C@@H](O)[C@H]1C[S+](CC2CCCCC2)C[C@H]1O` (some centres undefined), with “inactive”. As for `O=c1ccn([C@@H]2O[C@H](COCCCC[S+]3C[C@H]([C@H](O)CO)[C@H](O)C3)[C@@H](O)[C@H]2O)c(=O)[nH]1` (some centres undefined), the inhibition entry is “inactive”.

Take `O=c1ccn([C@@H]2O[C@H](COCCC[S+]3C[C@H]([C@H](O)CO)[C@H](O)C3)[C@@H](O)[C@H]2O)c(=O)[nH]1` (some centres undefined): the inhibition entry was “inactive”.

On to `O=[N+]([O-])c1ccc(C[S+]2C[C@H]([C@H](O)CO)[C@H](O)C2)cc1` (some centres undefined), for which the inhibition result is “inactive”. As to `OCCCCCCCCCCCC[S+]1C[C@H]([C@H](O)CO)[C@H](O)C1` (some centres undefined), the inhibition amounted to 60%. Turning to `OCCCCCCCC[S+]1C[C@H]([C@H](O)CO)[C@H](O)C1` (some centres undefined), the inhibition entry was “inactive”.
